Measurements taken from the supplement of paper PMC10307832.

How the values were obtained:
Experiment in all cases: relative viability (nuclei count vs DMSO), 5 days (fraction); higher = more cells survive
Entinostat + Pictilisib = compound: Nc1ccccc1NC(=O)c1ccc(CNC(=O)OCc2cccnc2)cc1 [Entinostat] + CS(=O)(=O)N1CCN(Cc2cc3nc(-c4cccc5[nH]ncc45)nc(N4CCOCC4)c3s2)CC1 [Pictilisib] (partner 1 µM)
Method in brief: (§1)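 Dosing by pin tool came one day after lung cancer cell lines were seeded in 1536-well plates, using either one drug or a fixed anchor-drug dose plus five library-drug doses (not always all listed) in √10 steps. After 5 days, nuclei were counted on 4× images. Relative viability is treated-well nuclei count divided by vehicle-well nuclei count, and values are medians of duplicate plates.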

SGI-1776 + Vorinostat = compound: CN1CCC(CNc2ccc3ncc(-c4cccc(OC(F)(F)F)c4)n3n2)CC1 [SGI-1776] + O=C(CCCCCCC(=O)Nc1ccccc1)NO [Vorinostat] (partner 1 µM)
Method in brief: as §1

Entinostat + Vorinostat = compound: Nc1ccccc1NC(=O)c1ccc(CNC(=O)OCc2cccnc2)cc1 [Entinostat] + O=C(CCCCCCC(=O)Nc1ccccc1)NO [Vorinostat] (partner 1 µM)
Method in brief: as §1

[1] = compound: C1COCCN1C2=NC(=NC3=C2OC4=C3C=CC=N4)C5=CC(=CC=C5)NC(=O)C6=CN=C(C=C6)N + CCNC(=O)c1noc(-c2cc(C(C)C)c(O)cc2O)c1-c1ccc(CN2CCOCC2)cc1 [Luminespib] (partner 0.01 µM)
Method in brief: as §1

| Cell Line | relative viability (Entinostat + Pictilisib; first compound 0.02 µM) | relative viability (Entinostat + Pictilisib; first compound 0.06325 µM) | relative viability (Entinostat + Pictilisib; first compound 0.2 µM) | relative viability (Entinostat + Pictilisib; first compound 0.6325 µM) | relative viability (Entinostat + Pictilisib; first compound 2 µM) | relative viability (SGI-1776 + Vorinostat; first compound 0.08 µM) | relative viability (SGI-1776 + Vorinostat; first compound 0.8 µM) | relative viability (SGI-1776 + Vorinostat; first compound 2.53 µM) | relative viability (SGI-1776 + Vorinostat; first compound 8 µM) | relative viability (Entinostat + Vorinostat; first compound 0.02 µM) | relative viability (Entinostat + Vorinostat; first compound 0.06325 µM) | relative viability (Entinostat + Vorinostat; first compound 0.2 µM) | relative viability (Entinostat + Vorinostat; first compound 0.6325 µM) | relative viability (Entinostat + Vorinostat; first compound 2 µM) | relative viability ([1]; first compound 0.02 µM) | relative viability ([1]; first compound 0.06325 µM) | relative viability ([1]; first compound 0.2 µM) | relative viability ([1]; first compound 0.6325 µM) | relative viability ([1]; first compound 2 µM) |
| --- | --- | --- | --- | --- | --- | --- | --- | --- | --- | --- | --- | --- | --- | --- | --- | --- | --- | --- | --- |
| LK-2 | 0.62 | 0.486 | 0.529 | 0.518 | 0.285 | 0.35 | 0.347 | 0.23 | 0.321 | 0.237 | 0.293 | 0.279 | 0.188 | 0.154 | 0.193 | 0.196 | 0.201 | 0.169 | 0.175 |
| LOU-NH91 | 0.522 | 0.529 | 0.549 | 0.452 | 0.394 | 0.976 | 1 | 0.845 | 0.644 | 0.971 | 0.909 | 0.872 | 0.718 | 0.56 | 0.309 | 0.389 | 0.346 | 0.315 | 0.306 |
| LU99A | 0.289 | 0.326 | 0.334 | 0.271 | 0.231 | 0.463 | 0.531 | 0.56 | 0.443 | 0.521 | 0.499 | 0.503 | 0.388 | 0.326 | 0.265 | 0.221 | 0.235 | 0.207 | 0.266 |
| LXF-289 | 0.78 | 0.81 | 0.657 | 0.393 | 0.191 | 0.693 | 0.827 | 0.79 | 0.682 | 0.784 | 0.784 | 0.731 | 0.526 | 0.381 | 0.598 | 0.798 | 0.783 | 0.494 | 0.321 |
| NCI-H23 | 0.496 | 0.576 | 0.499 | 0.404 | 0.296 | 0.639 | 0.758 | 0.602 | 0.533 | 0.601 | 0.681 | 0.496 | 0.271 | 0.198 | 0.185 | 0.203 | 0.191 | 0.208 | 0.212 |
| NCI-H322M | 0.513 | 0.595 | 0.561 | 0.559 | 0.295 | 0.882 | 0.926 | 0.846 | 0.707 | 0.967 | 0.975 | 0.981 | 0.876 | 0.808 | 0.988 | 0.981 | 0.742 | 0.735 | 0.484 |
| NCI-H358 | 0.332 | 0.327 | 0.369 | 0.278 | 0.187 | 0.686 | 1.06 | 0.634 | 0.625 | 0.67 | 0.618 | 0.947 | 0.211 | 0.117 | 0.287 | 0.254 | 0.353 | 0.426 | 0.193 |
| NCI-H441 | 0.369 | 0.429 | 0.402 | 0.208 | 0.172 | 0.929 | 0.761 | 0.867 | 0.658 | 0.695 | 0.61 | 0.465 | 0.261 | 0.161 | 0.284 | 0.314 | 0.324 | 0.501 | 0.25 |
| NCI-H460 | 0.328 | 0.411 | 0.333 | 0.132 | 0.108 | 0.887 | 0.688 | 0.717 | 0.715 | 0.751 | 0.567 | 0.245 | 0.052 | 0.0296 | 0.0333 | 0.035 | 0.0284 | 0.0243 | 0.0278 |
| NCI-H520 | 0.327 | 0.284 | 0.32 | 0.282 | 0.275 | 0.711 | 0.779 | 0.797 | 0.561 | 0.634 | 0.732 | 0.764 | 0.491 | 0.306 | 0.224 | 0.21 | 0.244 | 0.233 | 0.201 |
| NCI-H596 | 0.401 | 0.4 | 0.372 | 0.333 | 0.348 | 0.583 | 0.75 | 0.595 | 0.485 | 0.603 | 0.694 | 0.708 | 0.589 | 0.41 | 0.985 | 1.04 | 0.968 | 0.992 | 0.408 |
| NCI-H647 | 0.508 | 0.755 | 0.469 | 0.314 | 0.093 | 0.539 | 0.61 | 0.604 | 0.322 | 0.513 | 0.577 | 0.345 | 0.209 | 0.0916 | 0.31 | 0.193 | 0.189 | 0.125 | 0.127 |
| NCI-H650 | 0.934 | 0.914 | 0.75 | 0.579 | 0.269 | 0.536 | 0.453 | 0.477 | 0.376 | 0.45 | 0.469 | 0.35 | 0.367 | 0.181 | 0.873 | 0.756 | 0.788 | 0.783 | 0.698 |
| NCI-H661 | 0.47 | 0.614 | 0.559 | 0.565 | 0.407 | 0.822 | 0.805 | 0.871 | 0.829 | 0.718 | 0.774 | 0.707 | 0.58 | 0.468 | 0.894 | 0.961 | 0.962 | 0.958 | 0.52 |
| NCI-H727 | 0.357 | 0.355 | 0.689 | 0.2 | 0.219 | 1.26 | 1.11 | 1.39 | 0.983 | 1.24 | 1.27 | 1.16 | 1.06 | 0.673 | 0.482 | 0.317 | 0.323 | 0.335 | 0.346 |
| NCI-H838 | 0.439 | 0.613 | 0.72 | 0.461 | 0.237 | 0.794 | 0.697 | 0.676 | 0.522 | 0.784 | 0.688 | 0.667 | 0.458 | 0.257 | 0.338 | 0.279 | 0.264 | 0.303 | 0.227 |
| NCI-H1355 | 0.473 | 0.411 | 0.389 | 0.254 | 0.201 | 0.692 | 0.709 | 0.651 | 0.551 | 0.604 | 0.638 | 0.62 | 0.504 | 0.381 | 0.708 | 0.741 | 0.7 | 0.58 | 0.693 |
| NCI-H1395 | 0.598 | 0.758 | 0.64 | 0.67 | 0.487 | 0.887 | 0.755 | 0.558 | 0.47 | 1.05 | 0.96 | 0.829 | 0.65 | 0.463 | 0.666 | 0.555 | 0.789 | 0.658 | 0.482 |
| NCI-H1437 | 0.415 | 0.255 | 0.182 | 0.147 | 0.112 | 0.84 | 0.857 | 0.798 | 0.702 | 0.612 | 0.466 | 0.383 | 0.261 | 0.254 | 0.859 | 1.21 | 1.04 | 1.08 | 0.537 |
| NCI-H1650 | 0.65 | 0.67 | 0.554 | 0.407 | 0.248 | 0.848 | 0.621 | 0.521 | 0.423 | 0.794 | 0.747 | 0.571 | 0.438 | 0.264 | 0.186 | 0.202 | 0.198 | 0.233 | 0.166 |
| NCI-H1651 | 0.624 | 0.674 | 0.572 | 0.452 | 0.365 | 0.605 | 0.648 | 0.563 | 0.416 | 0.599 | 0.645 | 0.449 | 0.496 | 0.314 | 0.949 | 0.992 | 0.999 | 0.856 | 0.557 |
| NCI-H1666 | 0.44 | 0.403 | 0.34 | 0.258 | 0.258 | 0.999 | 0.971 | 0.957 | 1.01 | 1.05 | 0.979 | 0.934 | 0.835 | 0.601 | 0.88 | 0.996 | 0.957 | 0.727 | 0.63 |
| NCI-H1734 | 0.454 | 0.513 | 0.459 | 0.41 | 0.289 | 0.809 | 0.913 | 0.801 | 0.662 | 0.846 | 0.861 | 0.84 | 0.604 | 0.489 | 0.169 | 0.197 | 0.204 | 0.182 | 0.156 |
| NCI-H1755 | 0.383 | 0.408 | 0.367 | 0.204 | 0.205 | 0.809 | 0.87 | 0.733 | 0.6 | 0.762 | 0.728 | 0.769 | 0.48 | 0.374 | 0.447 | 0.666 | 0.436 | 0.235 | 0.239 |
| NCI-H1793 | 0.317 | 0.333 | 0.285 | 0.235 | 0.219 | 0.843 | 1.15 | 0.768 | 0.638 | 0.78 | 0.854 | 0.801 | 0.439 | 0.29 | 0.16 | 0.192 | 0.168 | 0.165 | 0.158 |
| NCI-H1915 | 0.899 | 0.94 | 0.844 | 0.328 | 0.218 | 0.51 | 0.555 | 0.492 | 0.449 | 0.488 | 0.499 | 0.481 | 0.356 | 0.152 | 0.95 | 0.85 | 0.829 | 0.432 | 0.267 |
| NCI-H1944 | 0.332 | 0.398 | 0.336 | 0.268 | 0.25 | 0.584 | 0.646 | 0.553 | 0.477 | 0.59 | 0.576 | 0.452 | 0.307 | 0.246 | 0.728 | 0.786 | 0.665 | 0.555 | 0.553 |
| NCI-H1975 | 0.206 | 0.245 | 0.228 | 0.151 | 0.139 | 0.745 | 0.725 | 0.683 | 0.589 | 0.692 | 0.651 | 0.509 | 0.347 | 0.211 | 0.157 | 0.148 | 0.202 | 0.29 | 0.3 |
